From patent US6706663B2, “Herbicidal 3-heterocyclic substituted benzisothiazole and benzisoxazole compounds” (Wyeth, priority 2000, dated 2004)

Tests used:
[1] = tested on: ABUTH (Abutilon theophrasti); experiment: Postemergence herbicidal evaluation; format: in vivo, Medic.; conditions: postemergence
Description: (§1) In the tests, seedling plants are grown in jiffy flats for about two weeks. […] After spraying, the plants are placed on greenhouse benches and are cared for in accordance with conventional greenhouse procedures. From four to five weeks after treatment, the seedling plants are examined and rated according to the rating system set forth below. Where more than one test is involved for a given compound, the data are averaged.
(§2) Results of herbicide evaluation are expressed on a rating scale (0-9). The scale is based upon a visual observation of plant stand, vigor, malformation, size, chlorosis and overall plant appearance as compared with a control.

[2] = tested on: AMBEL (Ambrosia artemisifolia); experiment: Postemergence herbicidal evaluation; format: in vivo, L.; conditions: postemergence
Description: as §1, §2

[3] = tested on: CASOB (Cassia obtusifolia); experiment: Postemergence herbicidal evaluation; format: in vivo, L.; conditions: postemergence
Description: as §1, §2

[4] = tested on: CHEAL (Chenopodium album); experiment: Postemergence herbicidal evaluation; format: in vivo, L.; conditions: postemergence
Description: as §1, §2

GALAP (Galium aparine) [5] = experiment: Postemergence herbicidal evaluation; format: in vivo; conditions: postemergence
Description: as §1, §2

[6] = tested on: IPOHE (Ipomoea hederacea); experiment: Postemergence herbicidal evaluation; format: in vivo, (L.) Jacq.; conditions: postemergence
Description: as §1, §2

[7] = tested on: ECHCG (Echinochloa crus-galli); experiment: Postemergence herbicidal evaluation; format: in vivo, (L.) Beau; conditions: postemergence
Description: as §1, §2

SETVI (Setaria viridis) [8] = experiment: Postemergence herbicidal evaluation; format: in vivo, (L.) Beau; conditions: postemergence
Description: In the tests, seedling plants are grown in jiffy flats for about two weeks. The test compounds are dispersed in 50/50 acetone/water mixtures containing 0.5% TWEEN® 20, a polyoxyethylene sorbitan monolaurate surfactant of Atlas Chemical Industries, in sufficient quantities to provide the equivalent of about 0.0040 kg to 1.000 kg per hectare of active compound when applied to the plants through a spray nozzle operating at 40 psi for a predetermined time. After spraying, the plants are placed on greenhouse benches and are cared for in accordance with conventional greenhouse procedures. From four to five weeks after treatment, the seedling plants are examined and rated according to the rating system set forth below. Where more than one test is involved for a given compound, the data are averaged.
as §2

[9] = tested on: GLXMAW (Soybean, Williams); experiment: Postemergence herbicidal evaluation; format: in vivo, Glycine max, (L.) Merr. cv Williams; conditions: postemergence
Description: as §1, §2

ORYSAT (Rice, Tebonnet) [10] = experiment: Postemergence herbicidal evaluation; format: in vivo, Oryza sativa, (L.) Tebonnet; conditions: postemergence
Description: as §1, §2

[11] = tested on: TRZAWR (Wheat, Winter, cv Riband); experiment: Postemergence herbicidal evaluation; format: in vivo, Triticum aestivum; conditions: postemergence
Description: as §1, §2

ZEAMX (Corn, Field) [12] = experiment: Postemergence herbicidal evaluation; format: in vivo, Zea mays, L.; conditions: postemergence
Description: as §1, §2

[13] = tested on: ABUTH (Abutilon theophrasti); experiment: Preemergence herbicidal evaluation; format: in vivo, Medic.; conditions: Rate 0.0620 kg/ha; rated 4-5 weeks after treatment
From the text: as §2
(§3) The preemergence herbicidal activity of the test compounds of the present invention is exemplified by the following tests in which the seeds of a variety of monocotyledonous and dicotyledonous plants are separately mixed with potting soil and planted on top of approximately one inch of soil in separate pint cups. […] The treated cups are then placed on greenhouse benches, watered and cared for in accordance with conventional greenhouse procedures. From four to five weeks after treatment, the tests are terminated and each cup is examined and rated according to the rating system provided in Example 87. The plant species used and the compounds evaluated are the same as those shown in Example 87.

[14] = tested on: AMBEL (Ambrosia artemisifolia); experiment: Preemergence herbicidal evaluation; format: in vivo, L.; conditions: Rate 0.0620 kg/ha; rated 4-5 weeks after treatment
From the text: as §2, §3

[15] = tested on: CASOB (Cassia obtusifolia); experiment: Preemergence herbicidal evaluation; format: in vivo, L.; conditions: Rate 0.0620 kg/ha; rated 4-5 weeks after treatment
From the text: as §2, §3

[16] = tested on: CHEAL (Chenopodium album); experiment: Preemergence herbicidal evaluation; format: in vivo, L.; conditions: Rate 0.0620 kg/ha; rated 4-5 weeks after treatment
From the text: as §2, §3

GALAP (Galium aparine) [17] = experiment: Preemergence herbicidal evaluation; format: in vivo; conditions: Rate 0.0620 kg/ha; rated 4-5 weeks after treatment
From the text: as §2, §3

[18] = tested on: IPOHE (Ipomoea hederacea); experiment: Preemergence herbicidal evaluation; format: in vivo, (L.) Jacq.; conditions: Rate 0.0620 kg/ha; rated 4-5 weeks after treatment
From the text: as §2, §3

[19] = tested on: ECHCG (Echinochloa crus-galli); experiment: Preemergence herbicidal evaluation; format: in vivo, (L.) Beau; conditions: Rate 0.0620 kg/ha; rated 4-5 weeks after treatment
From the text: as §2, §3

SETVI (Setaria viridis) [20] = experiment: Preemergence herbicidal evaluation; format: in vivo, (L.) Beau; conditions: Rate 0.0620 kg/ha; rated 4-5 weeks after treatment
From the text: as §2, §3

[21] = tested on: GLXMAW (Soybean, Williams); experiment: Preemergence herbicidal evaluation; format: in vivo, Glycine max, (L.) Merr. cv Williams; conditions: Rate 0.0620 kg/ha; rated 4-5 weeks after treatment
From the text: as §2, §3

ORYSAT (Rice, Tebonnet) [22] = experiment: Preemergence herbicidal evaluation; format: in vivo, Oryza sativa, (L.) Tebonnet; conditions: Rate 0.0620 kg/ha; rated 4-5 weeks after treatment
From the text: as §2, §3

[23] = tested on: TRZAWR (Wheat, Winter, cv Riband); experiment: Preemergence herbicidal evaluation; format: in vivo, Triticum aestivum; conditions: Rate 0.0620 kg/ha; rated 4-5 weeks after treatment
From the text: as §2, §3

ZEAMX (Corn, Field) [24] = experiment: Preemergence herbicidal evaluation; format: in vivo, Zea mays, L.; conditions: Rate 0.0620 kg/ha; rated 4-5 weeks after treatment
From the text: as §2, §3

[25] = tested on: ECHORC (Echinochloa oryzoides); experiment: Flooded paddy, preemergence weed control; format: in vivo, Echinochloa oryzoides (Ard.) Fritsch.; conditions: rated 3-4 weeks after treatment, 0-9 rating scale
Description: as §2
(§4) Preemergence herbicidal activity under flooded paddy conditions is determined as follows: plant seeds or propagating organs are planted in the top 0.5 cm of silt loam soil in 32 oz. plastic containers with a diameter of 10.5 cm and no drainage holes. Water is added to these containers and maintained at 1.5 to 3 cm above the soil surface for the duration of the experiment. […] The treated containers are placed on greenhouse benches and cared for in accordance with conventional greenhouse procedures.

CYPIR (Cyperus iria) = experiment: Flooded paddy, preemergence weed control; format: in vivo; conditions: rated 3-4 weeks after treatment, 0-9 rating scale
Description: as §2, §4

[26] = tested on: MOOVA (Monochoria vaginalis); experiment: Flooded paddy, preemergence weed control; format: in vivo, Presl.; conditions: rated 3-4 weeks after treatment, 0-9 rating scale
Description: as §2, §4

[27] = tested on: SAGPY (Sagittaria pygmaea); experiment: Flooded paddy, preemergence weed control; format: in vivo, L.; conditions: rated 3-4 weeks after treatment, 0-9 rating scale
Description: as §2, §4

In the case of `C[C@@H]1OC(c2nsc3cc(F)c(-n4c(=O)cc(C(F)(F)F)n(C)c4=O)cc23)O[C@@H]1C` (stereo partly drawn) [Compound 66, 3-[3-[(4R,5S-)-4,5-dimethyl-1,3-dioxolan-2-yl]-6-fluoro-1,2-benzisothiazol-5-yl]-1-methyl-6-(trifluoromethyl)uracil], the ABUTH herbicidal rating ([1]; rate 0.0320 kg/ha) is reported as 9.0, the ABUTH herbicidal rating ([1]; rate 0.0620 kg/ha) is reported as 9.0 and the AMBEL herbicidal rating ([2]; rate 0.0320 kg/ha) is reported as 9.0. The AMBEL herbicidal rating ([2]; rate 0.0620 kg/ha) was 9.0, the CASOB herbicidal rating ([3]; rate 0.0320 kg/ha) was 8.0 and the CASOB herbicidal rating ([3]; rate 0.0620 kg/ha) was 9.0. The CHEAL herbicidal rating ([4]; rate 0.0320 kg/ha) was 9.0, the CHEAL herbicidal rating ([4]; rate 0.0620 kg/ha) was 9.0 and the GALAP herbicidal rating (GALAP (Galium aparine) [5]; rate 0.0320 kg/ha) was 9.0. The GALAP herbicidal rating (GALAP (Galium aparine) [5]; rate 0.0620 kg/ha) was 9.0, the IPOHE herbicidal rating ([6]; rate 0.0320 kg/ha) was 9.0 and the IPOHE herbicidal rating ([6]; rate 0.0620 kg/ha) was 9.0. For the same compound, the ECHCG herbicidal rating ([7]; rate 0.0320 kg/ha) was 2.0, the ECHCG herbicidal rating ([7]; rate 0.0620 kg/ha) was 5.0 and the SETVI herbicidal rating (SETVI (Setaria viridis) [8]; rate 0.0320 kg/ha) was 8.0. For the same compound, the SETVI herbicidal rating (SETVI (Setaria viridis) [8]; rate 0.0620 kg/ha) was 9.0, the GLXMAW herbicidal rating ([9]; rate 0.0320 kg/ha) was 9.0 and the GLXMAW herbicidal rating ([9]; rate 0.0620 kg/ha) was 9.0. The ORYSAT herbicidal rating (ORYSAT (Rice, Tebonnet) [10]; rate 0.0320 kg/ha) was 4.5, the ORYSAT herbicidal rating (ORYSAT (Rice, Tebonnet) [10]; rate 0.0620 kg/ha) was 4.5 and the TRZAWR herbicidal rating ([11]; rate 0.0320 kg/ha) was 4.0. For the same compound, the TRZAWR herbicidal rating ([11]; rate 0.0620 kg/ha) was 4.0, the ZEAMX herbicidal rating (ZEAMX (Corn, Field) [12]; rate 0.0320 kg/ha) was 5.5 and the ZEAMX herbicidal rating (ZEAMX (Corn, Field) [12]; rate 0.0620 kg/ha) was 5.5. The “Preemergence herbicidal rating ABUTH” value [13] was 9.0, the “Preemergence herbicidal rating AMBEL” value [14] was 9.0 and the “Preemergence herbicidal rating CASOB” value [15] was 6.0. The “Preemergence herbicidal rating CHEAL” value [16] was 9.0, the “Preemergence herbicidal rating GALAP” value (GALAP (Galium aparine) [17]) was 7.0 and the “Preemergence herbicidal rating IPOHE” value [18] was 7.5. The “Preemergence herbicidal rating ECHCG” value [19] was 9.0, the “Preemergence herbicidal rating SETVI” value (SETVI (Setaria viridis) [20]) was 9.0 and the “Preemergence herbicidal rating GLXMAW” value [21] was 9.0. The “Preemergence herbicidal rating ORYSAT” value (ORYSAT (Rice, Tebonnet) [22]) was 8.5, the “Preemergence herbicidal rating TRZAWR” value [23] was 8.0 and the “Preemergence herbicidal rating ZEAMX” value (ZEAMX (Corn, Field) [24]) was 8.0. The “herbicidal rating, ECHORC” value ([25]; rate 0.0080 kg/ha) was 4.5, the “herbicidal rating, ECHORC” value ([25]; rate 0.0320 kg/ha) was 9.0 and the “herbicidal rating, ECHORC” value ([25]; rate 0.1250 kg/ha) was 9.0. The “herbicidal rating, CYPIR” value (CYPIR (Cyperus iria); rate 0.0080 kg/ha) was 2.5, the “herbicidal rating, CYPIR” value (CYPIR (Cyperus iria); rate 0.0320 kg/ha) was 6.0 and the “herbicidal rating, CYPIR” value (CYPIR (Cyperus iria); rate 0.1250 kg/ha) was 9.0. The “herbicidal rating, MOOVA” value ([26]; rate 0.0080 kg/ha) was 0.0, the “herbicidal rating, MOOVA” value ([26]; rate 0.0320 kg/ha) was 9.0 and the “herbicidal rating, MOOVA” value ([26]; rate 0.1250 kg/ha) was 9.0. For the same compound, the “herbicidal rating, SAGPY” value ([27]; rate 0.0080 kg/ha) was 2.5, the “herbicidal rating, SAGPY” value ([27]; rate 0.0320 kg/ha) was 9.0 and the “herbicidal rating, SAGPY” value ([27]; rate 0.1250 kg/ha) was 9.0.
